Results as given in ChEMBL document CHEMBL5154678, “Lysine Stapling Screening Provides Stable and Low Toxic Cationic Antimicrobial Peptides Combating Multidrug-Resistant Bacteria In Vitro and In Vivo” (J Med Chem, 2022).
≈ marks a conversion by molar mass, not a printed value. Calls of active or inactive are those of the source. The rule behind the calls is not given here. Starred links: 1 amine or outer side, 2 acyl side, 3 side chain; linkers in the order of their positions; H or OH if unused. Positions of bridges follow the written chain, without caps; N, C: chain ends. Non-standard residues stand in square brackets, D forms with d. Residues, ends and D or L forms follow the SMILES beside them. X1 = O=C([C@H](CCCCNCC=[*:3])N[*:1])[*:2]

Legend:
Cell membrane [1] = experiment: Induction of membrane disruption in multidrug-resistant Acinetobacter baumannii assessed as loss of cell integrity at 16 ug/ml measured after 2 hrs by SEM analysis; type: subcellular; settings: dose 16.0 µg/ml
Cell membrane [2] = experiment: Induction of membrane disruption in methicillin-resistant Staphylococcus aureus BNCC 186335 assessed as loss of cell integrity at 16 ug/ml measured after 2 hrs by SEM analysis; type: subcellular; settings: dose 16.0 µg/ml
Cell membrane [3] = experiment: Induction of membrane damage in multidrug-resistant Acinetobacter baumannii assessed as concentration of stained cells incubated for 2 hrs by propidium iodide staining based flow cytometer assay; type: subcellular; settings: dose 16.0 µg/ml
Cell membrane [4] = experiment: Induction of membrane damage in methicillin-resistant Staphylococcus aureus BNCC 186335 assessed as concentration of stained cells incubated for 2 hrs by propidium iodide staining based flow cytometer assay; type: subcellular
Staphylococcus aureus [5] = experiment: Antibacterial activity against methicillin-resistant Staphylococcus aureus assessed as inhibition of bacterial growth incubated for 16 hrs by broth microdilution method; type: functional
Staphylococcus aureus [6] = experiment: Antibacterial activity against Staphylococcus aureus BNCC 186335 assessed as inhibition of bacterial growth incubated for 16 hrs by broth microdilution method; type: functional
Listeria monocytogenes = experiment: Antibacterial activity against Listeria monocytogenes assessed as inhibition of bacterial growth incubated for 16 hrs by broth microdilution method; type: functional
Pseudomonas aeruginosa [7] = experiment: Antibacterial activity against Pseudomonas aeruginosa BNCC 125486 assessed as inhibition of bacterial growth incubated for 16 hrs by broth microdilution method; type: functional
Escherichia coli [8] = experiment: Antibacterial activity against Escherichia coli BNCC 133264 assessed as inhibition of bacterial growth incubated for 16 hrs by broth microdilution method; type: functional
Escherichia coli [9] = experiment: Antibacterial activity against cephalosporin-resistant Escherichia coli BNCC 133264 assessed as inhibition of bacterial growth incubated for 16 hrs by broth microdilution method; type: functional
Erythrocyte = experiment: Hemolytic activity against human RBC assessed as concentration required to cause 10% hemolysis; type: toxicity, cell-based
Staphylococcus aureus [10] = experiment: Antibacterial activity against methicillin-resistant Staphylococcus aureus BNCC 186335 assessed as inhibition of bacterial growth incubated for 4 hrs in presence of 25% plasma by broth microdilution method; type: functional
[11] = Stability in human plasma assessed as half life measured after 24 hrs by HPLC analysis; type: ADME, cell-free
HEK-293T [12] = experiment: Cytotoxicity against human HEK293T cells assessed as cell survival rate at 128 ug/ml incubated for 24 hrs by MTT assay relative to control; type: toxicity, cell-based; settings: dose 128 µg/ml
Enterococcus faecium = experiment: Antibacterial activity against multidrug-resistant Enterococcus faecium assessed as inhibition of bacterial growth incubated for 16 hrs by broth microdilution method; type: functional
Staphylococcus aureus [13] = experiment: Antibacterial activity against multidrug-resistant Staphylococcus aureus BNCC 186335 assessed as inhibition of bacterial growth incubated for 16 hrs by broth microdilution method; type: functional
Klebsiella pneumoniae = experiment: Antibacterial activity against multidrug-resistant Klebsiella pneumoniae assessed as inhibition of bacterial growth incubated for 16 hrs by broth microdilution method; type: functional
Acinetobacter baumannii [14] = experiment: Antibacterial activity against multidrug-resistant Acinetobacter baumannii assessed as inhibition of bacterial growth incubated for 16 hrs by broth microdilution method; type: functional
Pseudomonas aeruginosa [15] = experiment: Antibacterial activity against multidrug-resistant Pseudomonas aeruginosa BNCC 125486 assessed as inhibition of bacterial growth incubated for 16 hrs by broth microdilution method; type: functional
Escherichia coli [16] = experiment: Antibacterial activity against multidrug-resistant Escherichia coli BNCC 133264 assessed as inhibition of bacterial growth incubated for 16 hrs by broth microdilution method; type: functional
Acinetobacter baumannii [17] = experiment: Bactericidal activity against multidrug-resistant Acinetobacter baumannii assessed as log reduction in colony forming unit at 32 ug/ml measured after 20 mins by time kill assay; type: functional, organism-based; settings: dose 32.0 µg/ml
Staphylococcus aureus [18] = experiment: Bactericidal activity against methicillin-resistant Staphylococcus aureus BNCC 186335 assessed as log reduction in colony forming unit at 32 ug/ml measured after 30 mins by time kill assay; type: functional, organism-based; settings: dose 32.0 µg/ml
Cell membrane [19] = experiment: Induction of membrane damage in methicillin-resistant Staphylococcus aureus BNCC 186335 assessed as disruption of membrane integrity at 16 ug/ml incubated for 2 hrs by propidium iodide staining based assay; settings: dose 16.0 µg/ml
HEK-293T [20] = experiment: Cytotoxicity against human HEK293T cells assessed as cell survival rate at 256 ug/ml incubated for 24 hrs by MTT assay; type: toxicity, cell-based; settings: dose 256 µg/ml
Staphylococcus aureus [21] = experiment: Drug resistance development in Staphylococcus aureus assessed as change in MIC at sub-MIC concentration measured after 60 passages; type: functional, organism-based
Staphylococcus aureus [22] = experiment: Antibacterial activity against methicillin-resistant Staphylococcus aureus BNCC 186335 infected in mouse C57BL/6 assessed as reduction in intracellular bacterial burden in kidney at 2 mg/kg ,ip incubated for 24 hrs; type: functional, organism-based
Staphylococcus aureus [23] = experiment: Antibacterial activity against methicillin-resistant Staphylococcus aureus BNCC 186335 infected in mouse C57BL/6 assessed as reduction in intracellular bacterial burden in lung at 2 mg/kg ,ip incubated for 24 hrs; type: functional, organism-based
Staphylococcus aureus [24] = experiment: Antibacterial activity against methicillin-resistant Staphylococcus aureus BNCC 186335 infected in mouse C57BL/6 assessed as reduction in intracellular bacterial burden in spleen at 2 mg/kg ,ip incubated for 24 hrs; type: functional, organism-based
Staphylococcus aureus [25] = experiment: Antibacterial activity against methicillin-resistant Staphylococcus aureus BNCC 186335 infected in mouse C57BL/6 assessed as reduction in intracellular bacterial burden in liver at 2 mg/kg ,ip incubated for 24 hrs; type: functional, organism-based
[26] = Toxicity in C57BL/6 mouse assessed as effect on blood urea nitrogen level at 5 to 20 mg/kg, ip administered once daily for 5 days and measured after 6 days; type: organism-based; settings: in vivo, 120 h, dose 5-20 mg/kg, time 5 day
[27] = Toxicity in C57BL/6 mouse assessed as effect on alanine aminotransferase level at 5 to 20 mg/kg, ip administered once daily for 5 days and measured after 6 days; type: organism-based; settings: in vivo, 120 h, dose 5-20 mg/kg, time 5 day
[28] = Toxicity in C57BL/6 mouse assessed as effect on body weight at 5 to 20 mg/kg, ip administered once daily for 5 days and measured every 24 hrs; type: organism-based; settings: in vivo, 120 h, dose 5-20 mg/kg, time 5 day
HEK-293T [29] = experiment: Cytotoxicity against human HEK293T cells assessed as cell survival rate at 64 Ug/ml incubated for 24 hrs by MTT assay relative to control; type: toxicity, cell-based; settings: dose 64 µg/ml
Acinetobacter baumannii [30] = experiment: Bactericidal activity against multidrug-resistant Acinetobacter baumannii assessed as log reduction in colony forming unit at 32 ug/ml measured after 10 mins by time kill assay; type: functional, organism-based; settings: dose 32.0 µg/ml
[31] = Toxicity in C57BL/6 mouse assessed as effect on aspartate transaminase level at 5 to 20 mg/kg, ip administered once daily for 5 days and measured after 6 days; type: organism-based; settings: in vivo, 120 h, dose 5-20 mg/kg, time 5 day
[32] = Toxicity in C57BL/6 mouse assessed as abnormalities and pathological changes in liver at 20 mg/kg, ip administered once daily for 5 days by H and E staining based assay; type: organism-based; settings: in vivo, 120 h, time 5 day
[33] = Toxicity in C57BL/6 mouse assessed as abnormalities and pathological changes in kidney at 20 mg/kg, ip administered once daily for 5 days by H and E staining based assay; type: organism-based; settings: in vivo, 120 h, time 5 day

SMILES | Activity (Cell membrane [1]) | Activity (Cell membrane [2]) | Activity (Cell membrane [3]) | Activity (Cell membrane [4]; DDE = dose-dependent effect) | MIC (Staphylococcus aureus [5]) | MIC (Staphylococcus aureus [6]) | MIC (Listeria monocytogenes) | MIC (Pseudomonas aeruginosa [7]) | MIC (Escherichia coli [8]) | MIC (Escherichia coli [9]) | MHC (Erythrocyte) | half-life [11] | MIC (Enterococcus faecium) | MIC (Staphylococcus aureus [13]) | MIC (Klebsiella pneumoniae) | MIC (Acinetobacter baumannii [14]) | MIC (Pseudomonas aeruginosa [15]) | MIC (Escherichia coli [16]) | Activity (Cell membrane [19]) | Activity (HEK-293T [20]) | also measured
CC(C)[C@H](N)C(=O)N[C@@H](CCCCN)C(=O)N[C@@H](CCCNC(=N)N)C(=O)N[C@@H](Cc1ccccc1)C(=O)N[C@@H](CCCCN)C(=O)N[C@H]1CCCCNCc2ccccc2CNCCCC[C@@H](C(=O)N[C@@H](Cc2ccccc2)C(=O)N[C@@H](CCCCN)C(=O)N[C@@H](CCCCN)C(=O)N[C@@H](Cc2ccccc2)C(=O)N[C@H](C(N)=O)C(C)C)NC(=O)[C@H](CCCNC(=N)N)NC(=O)[C@H](Cc2ccccc2)NC(=O)[C@H](Cc2ccccc2)NC1=O | Active | Active | 27% | Dde | 2 µg/mL (≈ 0.937 µM) | 2 µg/mL (≈ 0.937 µM) | 4 µg/mL (≈ 1.87 µM) | 8 µg/mL (≈ 3.75 µM) | 4 µg/mL (≈ 1.87 µM) | 8 µg/mL (≈ 3.75 µM) | 32 µg/mL | 16 h | 2 µg/mL (≈ 0.937 µM) | 4 µg/mL (≈ 1.87 µM) | 16 µg/mL (≈ 7.5 µM) | 2 µg/mL (≈ 0.937 µM) | 8 µg/mL (≈ 3.75 µM) | 4 µg/mL (≈ 1.87 µM) | Active | Toxic | MIC (Staphylococcus aureus [10]): 8 µg/mL; Activity (HEK-293T [12]): Toxic; Activity (Acinetobacter baumannii [17]): Active; Activity (Staphylococcus aureus [18]): Active; Activity (Staphylococcus aureus [21]): Active
CC(C)[C@H](N)C(=O)N[C@@H](CCCCN)C(=O)N[C@@H](CCCNC(=N)N)C(=O)N[C@@H](Cc1ccccc1)C(=O)N[C@@H](CCCCN)C(=O)N[C@@H](CCCCN)C(=O)N[C@@H](Cc1ccccc1)C(=O)N[C@@H](Cc1ccccc1)C(=O)N[C@@H](CCCNC(=N)N)C(=O)N[C@@H](CCCCN)C(=O)N[C@@H](Cc1ccccc1)C(=O)N[C@@H](CCCCN)C(=O)N[C@@H](CCCCN)C(=O)N[C@@H](Cc1ccccc1)C(=O)N[C@H](C(N)=O)C(C)C (H-VKRFKKFFRKFKKFV-NH2) | – | – | – | – | 8 µg/mL (≈ 3.94 µM) | 4 µg/mL (≈ 1.97 µM) | 16 µg/mL (≈ 7.87 µM) | 8 µg/mL (≈ 3.94 µM) | 2 µg/mL (≈ 0.984 µM) | 16 µg/mL (≈ 7.87 µM) | > 128 µg/mL | 2.5 h | 8 µg/mL (≈ 3.94 µM) | 32 µg/mL (≈ 15.7 µM) | 128 µg/mL (≈ 63 µM) | 4 µg/mL (≈ 1.97 µM) | 4 µg/mL (≈ 1.97 µM) | 8 µg/mL (≈ 3.94 µM) | – | Toxic | Activity (Staphylococcus aureus [22]): Active; Activity (Staphylococcus aureus [23]): Active; Activity (Staphylococcus aureus [24]): Active; Activity (Cell membrane [3]; DDE = dose-dependent effect): Dde; Activity (Cell membrane [4]): 11%; Activity (Staphylococcus aureus [25]): Active
CC(C)[C@H](N)C(=O)N[C@@H](CCCCN)C(=O)N[C@@H](CCCNC(=N)N)C(=O)N[C@@H](Cc1ccccc1)C(=O)N[C@@H](CCCCN)C(=O)N[C@H]1CCCCNC/C=C/CNCCCC[C@@H](C(=O)N[C@@H](Cc2ccccc2)C(=O)N[C@@H](CCCCN)C(=O)N[C@@H](CCCCN)C(=O)N[C@@H](Cc2ccccc2)C(=O)N[C@H](C(N)=O)C(C)C)NC(=O)[C@H](CCCNC(=N)N)NC(=O)[C@H](Cc2ccccc2)NC(=O)[C@H](Cc2ccccc2)NC1=O (H-VKRFK[X1]FFR[X1]FKKFV-NH2; staple (E) 6-10) | Active | Active | 80% | Dde | 2 µg/mL (≈ 0.959 µM) | 2 µg/mL (≈ 0.959 µM) | 4 µg/mL (≈ 1.92 µM) | 16 µg/mL (≈ 7.68 µM) | 2 µg/mL (≈ 0.959 µM) | 8 µg/mL (≈ 3.84 µM) | > 128 µg/mL | 13 h | 4 µg/mL (≈ 1.92 µM) | 8 µg/mL (≈ 3.84 µM) | 32 µg/mL (≈ 15.4 µM) | 4 µg/mL (≈ 1.92 µM) | 8 µg/mL (≈ 3.84 µM) | 4 µg/mL (≈ 1.92 µM) | Active | Toxic | Activity [26]: Non-Toxic; Activity [27]: Non-Toxic; Activity [28]: Non-Toxic; Activity (Staphylococcus aureus [24]): Active; Activity (Staphylococcus aureus [25]): Active; Activity (HEK-293T [29]): Toxic; Activity (Staphylococcus aureus [10]): Active; Activity (Acinetobacter baumannii [30]): Active; Activity [31]: Non-Toxic; Activity [32]: Non-Toxic; Activity [33]: Non-Toxic; Activity (Staphylococcus aureus [21]): Active
